Measurements from BigSolDB 2.1.

COc1ccc(C(=O)O)cc1
solubility (mole fraction)
Conditions | 283.15 K | 288.15 K | 293.15 K | 298.15 K | 303.15 K | 308.15 K | 313.15 K | 318.15 K | 323.15 K | 328.15 K
in 2-butanone | 0.0107 | 0.0128 | 0.0149 | 0.0169 | 0.0198 | 0.023 | 0.0266 | 0.0298 | 0.0343 | 0.0394
in THF | 0.0483 | 0.0518 | 0.0562 | 0.0621 | 0.0671 | 0.0731 | 0.078 | 0.085 | 0.0923 | 0.0991
in acetone | 0.0129 | 0.0153 | 0.0173 | 0.0197 | 0.0224 | 0.026 | 0.0298 | 0.032 | 0.0344 | 0.0368
in cyclohexanone | 0.0187 | 0.0203 | 0.022 | 0.025 | 0.0292 | 0.034 | 0.0397 | 0.0449 | 0.0507 | 0.059
in ethyl formate | 0.00442 | 0.00508 | 0.00606 | 0.00738 | 0.00889 | 0.0114 | 0.0135 | 0.0152 | 0.0178 | 0.0195
in ethylene glycol | 0.0022 | 0.00292 | 0.0038 | 0.0046 | 0.00546 | 0.00649 | 0.00768 | 0.00885 | 0.0105 | 0.0126
in isobutanol | 0.00435 | 0.00548 | 0.00691 | 0.00889 | 0.0116 | 0.0143 | 0.0178 | 0.0206 | 0.025 | 0.0288
in isopropyl acetate | 0.00637 | 0.00732 | 0.00833 | 0.00955 | 0.0116 | 0.0135 | 0.0156 | 0.0179 | 0.021 | 0.0246
in n-butanol | 0.00647 | 0.0077 | 0.00946 | 0.011 | 0.0133 | 0.0158 | 0.0186 | 0.0218 | 0.0255 | 0.0302
in n-butyl acetate | 0.00629 | 0.00719 | 0.00867 | 0.0106 | 0.0118 | 0.0136 | 0.0158 | 0.0178 | 0.021 | 0.0244
in n-pentanol | 0.00696 | 0.00853 | 0.0101 | 0.012 | 0.014 | 0.0169 | 0.0197 | 0.0234 | 0.0272 | 0.0313
in n-propyl acetate | 0.00732 | 0.00802 | 0.0089 | 0.0103 | 0.0118 | 0.0136 | 0.0155 | 0.0182 | 0.0209 | 0.0237
in sec-butanol | 0.00623 | 0.00789 | 0.0101 | 0.0121 | 0.0149 | 0.0182 | 0.0219 | 0.0274 | 0.0317 | 0.0362
in toluene | 0.00062 | 0.00086 | 0.0012 | 0.00152 | 0.00196 | 0.00252 | 0.00301 | 0.00369 | 0.0044 | 0.0054
